Tests used:
KARPAS-422 cells = assay: Cell proliferation analysis, KARPAS-422, 13 days, CellTiter-Glo; type: cell-based; conditions: Homo sapiens, 312 h
Procedure: Human B-cell non-Hodgkin lymphoma cells, KARPAS-422 S, were cultured in a culture flask using standard cell culture conditions. The medium contained 15% fetal bovine serum (FBS, Invitrogen, product number 10099-141) and 1% penicillin/streptomycin solution (P/S) RPMI-1640 (Invitrogen, product number 11875), and the culture flask was placed and cultured in a sterile incubator at the temperature of 37° C. and […] with a relative humidity of […] To detect the effect of PRC2 inhibitors on cell proliferation, cells in exponential growth phase were taken and seeded into a 96-well plate (Corning, product number 3904) at a density of 1×10^4 cells/well, and 100 μL of the medium was added into each well. Subsequently, the compounds at different concentrations disclosed in the present disclosure were added into the wells where cells had already been seeded (9 concentration gradients were provided for each compound, with the highest detection concentration at 10 μM, 3-fold gradient dilution) and two replicates in parallel were provided for each treatment concentration. DMSO was at a final concentration of 0.5%. Afterwards, viable cell numbers were determined using Vi-CELL (Beckman Coulter) every 3-4 days. Cells counted were seeded into a new 96-well plate at the same density (1×10^4 cells/well) each time. The wells were supplemented with a fresh medium to 100 μL and at the same time, compounds at different concentrations were added. The cells were cultured to day 13. 100 μL of CellTiter-Glo (CellTiter-GloCellTiter-GloCellTiter-GloCTG) (Promega, product number G7573) was added into each well. The plate was placed in the dark at room temperature for 10-20 minutes and the luminescence signal was read using SpectraMax i3× (Molecular Devices).

[1] = system: trimethylation level of histone H3K27 in G401 cells; assay: ELISA (H3K27 trimethylation) analysis in G401 cells; type: cell-based; conditions: Homo sapiens, G-401, 72 hours, H3K27me3 standardized to H3
Procedure: 3-fold series dilution with DMSO was carried out on the representative compounds of the present disclosure; and 10 concentration gradients were detected for each compound, with the highest detection concentration of 10 μM. The compounds were diluted 200-fold into the G401 cells cultured in a 96-well plate (DMSO at a final concentration of 0.5%). After the cells, administered with the compound, were cultured for 72 hours, the trimethylation level of the histone H3K27 was detected using the ELISA method.
Extraction of the histone: in a 96-well plate, the compound-treated cells were washed three times with 1×PBS (10×PBS buffer (80 g NaCl (Sigma, product number S3014), 2 g KCl (Sigma, product number 60128), 14.4 g Na2HPO4 (Sigma, product number S5136), and 2.4 g KH2PO4 (Sigma, product number P9791) in 1 L of water, adjusting the pH to 7.4)). 100 μL of 0.4 N HCl was added into each well. The plate was placed at 4° C. and gently agitated for 2 hours to lyse the cells. The cell lysate was then neutralized with 80 μL of neutralization buffer (0.5 M disodium hydrogen phosphate, pH 12.5, 2.5 mM DTT; 1% cocktail (Sigma, product number P8340)) (the cell lysate and the neutralization buffer were thoroughly mixed to uniformity).
ELISA detection method: the cell lysate was transferred in parallel to two 384-well detection plates (PerkinElmer, OptiPlate-384HB, product number 6007290), wherein one of the plates was used to detect the H3K27 trimethylation level and the other plate was used to determine the level of H3. PBS was used to adjust the final volume to 50 μL/well. The plates were coated at 4° C. overnight. On the following day, the solution inside the wells was discarded and the plates were washed 5 times with TBST buffer (1×TBS (10×TBS: 24.2 g Tris (Sigma, product number T6066), 80 g NaCl (Sigma, product number S3014) in 1 L of water, adjusting the pH with HCl to 7.6), 0.1% Tween-20) and dried on an absorbent paper by inversion. 70 μL of blocking buffer (TBST, 5% BSA) was added into the coated reaction wells and the plates were incubated at room temperature for 1 hour. The blocking buffer was discarded and primary antibodies were added (30 μL/well). The desired primary antibodies were all diluted with a blocking buffer and the dilution factor was as follows: anti-H3K27me3 antibody (Cell Signaling Technology, product number 9733), 1:2000 dilution; anti-H3 antibody (Cell Signaling Technology, product number 4499), 1:10000 dilution. After the primary antibodies were added, the plates were placed at room temperature and incubated for 1 hour. After the plates were washed with TBST 5 times, the plates were dried by inversion. A secondary antibody (30 μL/well) was added to each of the reaction wells and the plates were incubated at room temperature for 1 hour. The secondary antibody (anti-rabbit antibody (Jackson ImmunoResearch, product number 111-035-003)) was diluted 2000-fold with a blocking buffer before use. After 1 hour, the plates were washed with TBST and dried by inversion. 30 μL of ECL substrate (Pierce, product number 34080) was added into each well and centrifuged at 2000 rpm for 30 seconds. The signal of each sample was detected using SpectraMax (Molecular Devices). Data processing: H3K27 methylation readings were first standardlized using H3 signals and 0.5% DMSO-treated samples was used as the control to calculate the inhibition percentage of the compounds. Data were fit to obtain Dose-Response curves using the GraphPad prism 5 program and the IC50 values of the test compounds were obtained.

| Compound | IC50 (KARPAS-422 cells) [µM] | IC50 [1] [µM] |
| --- | --- | --- |
| Fc1ccc2c(c1CNc1ncc(-c3cccn4ncnc34)c3nncn13)CCO2 [8-([1,2,4]triazolo[1,5-a]pyridin-8-yl)-N-((5-fluoro-2,3-dihydrobenzofuran-4-yl)methyl)-[1,2,4]triazolo[4,3-c]pyrimidin-5-amine] | 0.0014 | 0.0009 |
| Fc1ccc2c(c1CNc1ncc(-c3cccc4nsnc34)c3nncn13)CCO2 [8-(benzo[c][1,2,5]thiadiazol-4-yl)-N-((5-fluoro-2,3-dihydrobenzofuran-4-yl)methyl)-[1,2,4]triazolo[4,3-c]pyrimidin-5-amine] | 0.014 | 0.0023 |
| Fc1ccc2c(c1CNc1ncc(-c3cccc4scnc34)c3nncn13)CCO2 [8-(benzo[d]thiazol-4-yl)-N-((5-fluoro-2,3-dihydrobenzofuran-4-yl)methyl)-[1,2,4]triazolo[4,3-c]pyrimidin-5-amine] | 0.0036 | 0.0047 |
| Cc1ccc(-c2cnc(NCc3c(F)ccc4c3CCO4)n3cnnc23)c2ncc(C(=O)N3CCOCC3)n12 [(8-(5-(((5-fluoro-2,3-dihydrobenzofuran-4-yl)methyl)amino)-[1,2,4]triazolo[4,3-c]pyrimidin-8-yl)-5-methylimidazo[1,2-a]pyridin-3-yl)(morpholino)methanone] | 0.0011 | 0.0024 |
| CN(C)CCN(C)Cc1ccc(-c2cnc(NCc3c(F)ccc4c3CCO4)n3cnnc23)c2ncnn12 [N1-((8-(5-(((5-fluoro-2,3-dihydrobenzofuran-4-yl)methyl)amino)-[1,2,4]triazolo[4,3-c]pyrimidin-8-yl)-[1,2,4]triazolo[1,5-a]pyridin-5-yl)methyl)-N1,N2,N2-trimethylethane-1,2-diamine] | 0.0035 | 0.0112 |
| Fc1ccc2c(c1CNc1ncc(-c3cccc4cn[nH]c34)c3nncn13)CCO2 [N-((5-fluoro-2,3-dihydrobenzofuran-4-yl)methyl)-8-(1H-indazol-7-yl)-[1,2,4]triazolo[4,3-c]pyrimidin-5-amine] | 0.0023 | 0.0016 |
| CC1CN(c2ccc(-c3cnc(NCc4c(F)ccc5c4CCO5)n4cnnc34)c3ncnn23)CCO1 (centres unmarked) [N-((5-fluoro-2,3-dihydrobenzofuran-4-yl)methyl)-8-(5-(2-methylmorpholino)-[1,2,4]triazolo[1,5-a]pyridin-8-yl)-[1,2,4]triazolo[4,3-c]pyrimidin-5-amine] | 0.0005 | 0.0008 |
| CN1CCN(c2ccc(-c3cnc(NCc4c(F)ccc5c4CCO5)n4cnnc34)c3ncnn23)CC1 [N-((5-fluoro-2,3-dihydrobenzofuran-4-yl)methyl)-8-(5-(4-methylpiperazin-1-yl)-[1,2,4]triazolo[1,5-a]pyridin-8-yl)-[1,2,4]triazolo[4,3-c]pyrimidin-5-amine] | 0.0007 | 0.0041 |
| Fc1ccc2c(c1CNc1ncc(-c3ccc(N4CCC(N5CCOCC5)CC4)n4ncnc34)c3nncn13)CCO2 [N-((5-fluoro-2,3-dihydrobenzofuran-4-yl)methyl)-8-(5-(4-morpholinopiperidin-1-yl)-[1,2,4]triazolo[1,5-a]pyridin-8-yl)-[1,2,4]triazolo[4,3-c]pyrimidin-5-amine] | 0.0008 | 0.0011 |
| CN1CCN(Cc2ccc(-c3cnc(NCc4c(F)ccc5c4CCO5)n4cnnc34)c3ncnn23)CC1 [N-((5-fluoro-2,3-dihydrobenzofuran-4-yl)methyl)-8-(5-((4-methylpiperazin-1-yl)methyl)-[1,2,4]triazolo[1,5-a]pyridin-8-yl)-[1,2,4]triazolo[4,3-c]pyrimidin-5-amine] | 0.0007 | 0.0011 |
| Fc1ccc2c(c1CNc1ncc(-c3ccc(CN4CCOCC4)n4ncnc34)c3nncn13)CCO2 [N-((5-fluoro-2,3-dihydrobenzofuran-4-yl)methyl)-8-(5-(morpholinomethyl)-[1,2,4]triazolo[1,5-a]pyridin-8-yl)-[1,2,4]triazolo[4,3-c]pyrimidin-5-amine] | 0.0011 | 0.0011 |
| Fc1ccc2c(c1CNc1ncc(-c3ccc(N4CCCC4)n4ncnc34)c3nncn13)CCO2 [N-((5-fluoro-2,3-dihydrobenzofuran-4-yl)methyl)-8-(5-(pyrrolidin-1-yl)-[1,2,4]triazolo[1,5-a]pyridin-8-yl)-[1,2,4]triazolo[4,3-c]pyrimidin-5-amine] | 0.0032 | 0.0027 |
| Fc1ccc2c(c1CNc1ncc(-c3ccc(C(F)(F)F)n4ncnc34)c3nncn13)CCO2 [N-((5-fluoro-2,3-dihydrobenzofuran-4-yl)methyl)-8-(5-(trifluoromethyl)-[1,2,4]triazolo[1,5-a]pyridin-8-yl)-[1,2,4]triazolo[4,3-c]pyrimidin-5-amine] | 0.036 | 0.0069 |
| Fc1ccc2c(c1CNc1ncc(-c3ccc(C(F)(F)F)n4ccnc34)c3nncn13)CCO2 [N-((5-fluoro-2,3-dihydrobenzofuran-4-yl)methyl)-8-(5-(trifluoromethyl)imidazo[1,2-a]pyridin-8-yl)-[1,2,4]triazolo[4,3-c]pyrimidin-5-amine] | 0.007 | 0.0106 |
| COc1ccc(-c2cnc(NCc3c(F)ccc4c3CCO4)n3cnnc23)c2ncnn12 [N-((5-fluoro-2,3-dihydrobenzofuran-4-yl)methyl)-8-(5-methoxy-[1,2,4]triazolo[1,5-a]pyridin-8-yl)-[1,2,4]triazolo[4,3-c]pyrimidin-5-amine] | 0.0011 | 0.0032 |
| Cc1ccc(-c2cnc(NCc3c(F)ccc4c3CCO4)n3cnnc23)c2ncnn12 [N-((5-fluoro-2,3-dihydrobenzofuran-4-yl)methyl)-8-(5-methyl-[1,2,4]triazolo[1,5-a]pyridin-8-yl)-[1,2,4]triazolo[4,3-c]pyrimidin-5-amine] | 0.0018 | 0.0017 |
| Cc1ncc(-c2cnc(NCc3c(F)ccc4c3CCO4)n3cnnc23)c2ncnn12 [N-((5-fluoro-2,3-dihydrobenzofuran-4-yl)methyl)-8-(5-methyl-[1,2,4]triazolo[1,5-c]pyrimidin-8-yl)-[1,2,4]triazolo[4,3-c]pyrimidin-5-amine] | 0.0025 | 0.0045 |
| Cc1ccc(-c2cnc(NCc3c(F)ccc4c3CCO4)n3cnnc23)c2nncn12 [N-((5-fluoro-2,3-dihydrobenzofuran-4-yl)methyl)-8-(5-methyl-[1,2,4]triazolo[4,3-a]pyridin-8-yl)-[1,2,4]triazolo[4,3-c]pyrimidin-5-amine] | 0.0002 | 0.0002 |
| Cc1ccc(-c2cnc(NCc3c(F)ccc4c3CCO4)n3cnnc23)c2nnnn12 [N-((5-fluoro-2,3-dihydrobenzofuran-4-yl)methyl)-8-(5-methyltetrazolo[1,5-a]pyridin-8-yl)-[1,2,4]triazolo[4,3-c]pyrimidin-5-amine] | 0.0025 | 0.0024 |

— patent US12583870B2, “Azaheteroaryl compound and application thereof” (SHANGHAI BLUERAY BIOPHARMA CO., LTD., priority 2019, dated 2026)
